Test results: US20080031887A1, “Conjugates for inducing targeted immune responses and methods of making and using same” (priority 2006, published 2008)

Experiments:
Type in all cases: in vivo
TUBO cells [1] = experiment: TUBO tumors implanted s.c. in Balb/c (non-tolerant) mice, treatment from day 10; details: 20 μg/injection three times a week for three weeks; for antitumor effect (tumor rejection / tumor growth): i.t. injection, FIG. 1A; for antitumor effect: s.c. injection in the opposite flank, data not shown
Protocol: (§1) FIG. 1 contains graphic representations illustrating that intratumoral injections of CpG-ODN induce rejection of tumors in Balb/c, BALB-neuT and A2×neu mice. Balb/c and BALB-neuT were implanted s.c. with 10^6 TUBO cells, and A2×neu mice were implanted s.c. with 10^6 N202.A2 cells on day zero. On day 10, animals started treatment with i.t. injections of TLR-ligands three times a week (20 μg/injection) for three weeks. […]
(§2) For these experiments, Balb/c (non-tolerant) and BALB-neuT (tolerant) mice implanted with TUBO cells and A2×neu mice implanted with N202.A2 cells were used (it is important to remember that TUBO cells are tumorigenic in Balb/c and BALB-neuT mice, while N202.A2 cells are tumorigenic only in A2×neu mice but not in A2×FVB mice). It is well established that the injection of these ligands results in the activation of DCs, monocytes/macrophages, and B cells, and as a consequence of the activation of these cells, NK cell and T cell responses are stimulated. […] Balb/c and BALB-neuT mice were implanted s.c. with 10^6 TUBO cells, and A2×neu mice were implanted s.c. with 10^6 N202.A2 cells on day zero. On day 10, animals started treatment with s.c. injections of anti-CD40 mAb, Poly I:C, LPS, flagellin, imiquimod, CpG-ODN and control-ODN (as a control) in the opposite flank from where the tumor was injected, three times a week (20 μg/injection) for three weeks. […] It was decided to test whether intratumoral (i.t.) injection of TLR ligands would result in the induction of an antitumor response. The effect of i.t. injections of anti-CD40 mAb, Poly I:C, LPS, flagellin, imiquimod, CpG-ODN and control-ODN (as a control) three times a week (20 μg/injection) for three weeks was tested. […]
Evaluation of anti-neu-CpG-ODN (cleavable bond) vs. anti-neu-CpG-ODN (non-cleavable bond). In determining the effectiveness of the conjugates of the present invention, the antitumor effects of anti-neu-CpG-ODN generated with a cleavable bond or non-cleavable bond were evaluated. Anti-neu-CpG-ODN generated with a non-cleavable bond was produced by the reaction pathway shown in FIG. 7A and contained a hydrazone linkage between the Anti-neu antibody and the CpG-ODN. Anti-neu-CpG-ODN generated with a cleavable bond was produced by the reaction pathway shown in FIG. 7B and contained a disulfide cleavable linkage. TUBO cells (1×10^6) were implanted s.c. on day zero on Balb/c. Starting on day 10, animals were injected intratumorally with 30 μg/injection of each of the anti-neu-CpG-ODN molecules three times a week for three weeks.

TUBO cells [2] = experiment: TUBO tumors implanted s.c. in BALB-neuT (tolerant) mice, treatment from day 10; details: 20 μg/injection three times a week for three weeks; for antitumor effect (tumor rejection / tumor growth): i.t. injection, FIG. 1B; for antitumor effect: s.c. injection in the opposite flank, data not shown
Protocol: as §1, §2

N202.A2 cells = experiment: N202.A2 tumors implanted s.c. in A2×neu mice, treatment with TLR ligands from day 10; details: 20 μg/injection three times a week for three weeks; for antitumor effect (tumor rejection / tumor growth): i.t. injection, FIG. 1C; for antitumor effect: s.c. injection in the opposite flank, data not shown
Protocol: FIG. 1 contains graphic representations illustrating that intratumoral injections of CpG-ODN induce rejection of tumors in Balb/c, BALB-neuT and A2×neu mice. Balb/c and BALB-neuT were implanted s.c. with 10^6 TUBO cells, and A2×neu mice were implanted s.c. with 10^6 N202.A2 cells on day zero. On day 10, animals started treatment with i.t. injections of TLR-ligands three times a week (20 μg/injection) for three weeks.
For these experiments, Balb/c (non-tolerant) and BALB-neuT (tolerant) mice implanted with TUBO cells and A2×neu mice implanted with N202.A2 cells were used (it is important to remember that TUBO cells are tumorigenic in Balb/c and BALB-neuT mice, while N202.A2 cells are tumorigenic only in A2×neu mice but not in A2×FVB mice). It is well established that the injection of these ligands results in the activation of DCs, monocytes/macrophages, and B cells, and as a consequence of the activation of these cells, NK cell and T cell responses are stimulated. […] Balb/c and BALB-neuT mice were implanted s.c. with 10^6 TUBO cells, and A2×neu mice were implanted s.c. with 10^6 N202.A2 cells on day zero. On day 10, animals started treatment with s.c. injections of anti-CD40 mAb, Poly I:C, LPS, flagellin, imiquimod, CpG-ODN and control-ODN (as a control) in the opposite flank from where the tumor was injected, three times a week (20 μg/injection) for three weeks. […] It was decided to test whether intratumoral (i.t.) injection of TLR ligands would result in the induction of an antitumor response. The effect of i.t. injections of anti-CD40 mAb, Poly I:C, LPS, flagellin, imiquimod, CpG-ODN and control-ODN (as a control) three times a week (20 μg/injection) for three weeks was tested.

Row | Molecule | antitumor effect (tumor rejection / tumor growth) (TUBO cells [1]) | antitumor effect (TUBO cells [1]) | antitumor effect (tumor rejection / tumor growth) (TUBO cells [2]) | antitumor effect (TUBO cells [2]) | antitumor effect (tumor rejection / tumor growth) (N202.A2 cells) | antitumor effect (N202.A2 cells)
1 | CC(C)Cn1cnc2c(N)nc3ccccc3c21 [imiquimod] | did not have any effect in controlling the tumor growth | no antitumor effect | did not have any effect in controlling the tumor growth | no antitumor effect | did not have any effect in controlling the tumor growth | no antitumor effect
2 | Poly I:C | induced the rejection of tumors | no antitumor effect |  | no antitumor effect |  | no antitumor effect
3 | flagellin | did not have any effect in controlling the tumor growth | no antitumor effect | did not have any effect in controlling the tumor growth | no antitumor effect | did not have any effect in controlling the tumor growth | no antitumor effect
